Consider eleven compounds from ChEMBL document CHEMBL5291721, “A preclinical secondary pharmacology resource illuminates target-adverse drug reaction associations of marketed drugs” (Nat Commun, 2023).

A word on the AC50: it is the concentration giving half of the maximal activity seen.

In experiment [1] the target is T1, Muscarinic acetylcholine receptor M2 (Homo sapiens, UniProt P08172).
T1 sequence (P08172 whole entry): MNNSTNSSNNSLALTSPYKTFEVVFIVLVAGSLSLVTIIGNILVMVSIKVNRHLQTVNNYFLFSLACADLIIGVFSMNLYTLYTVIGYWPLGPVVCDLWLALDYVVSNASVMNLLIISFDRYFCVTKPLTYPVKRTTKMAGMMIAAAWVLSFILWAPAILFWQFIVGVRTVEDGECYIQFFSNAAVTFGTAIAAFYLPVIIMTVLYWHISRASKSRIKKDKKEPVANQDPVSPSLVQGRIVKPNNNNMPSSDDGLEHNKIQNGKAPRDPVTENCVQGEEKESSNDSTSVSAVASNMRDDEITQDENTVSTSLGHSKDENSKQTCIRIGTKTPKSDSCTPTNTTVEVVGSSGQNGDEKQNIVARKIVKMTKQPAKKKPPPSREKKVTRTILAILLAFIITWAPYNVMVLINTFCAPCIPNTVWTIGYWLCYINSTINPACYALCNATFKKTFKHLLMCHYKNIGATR
Format: functional, cell-based.

For experiment [2], the target named is Voltage-dependent L-type calcium channel subunit alpha-1C (Rattus norvegicus, UniProt P22002). Format: functional.
In experiment [3] the target is Sodium-dependent noradrenaline transporter (Homo sapiens, UniProt P23975).
The target in a further experiment is T2, Estrogen receptor (Homo sapiens, UniProt P03372).
T2 sequence (P03372 whole entry): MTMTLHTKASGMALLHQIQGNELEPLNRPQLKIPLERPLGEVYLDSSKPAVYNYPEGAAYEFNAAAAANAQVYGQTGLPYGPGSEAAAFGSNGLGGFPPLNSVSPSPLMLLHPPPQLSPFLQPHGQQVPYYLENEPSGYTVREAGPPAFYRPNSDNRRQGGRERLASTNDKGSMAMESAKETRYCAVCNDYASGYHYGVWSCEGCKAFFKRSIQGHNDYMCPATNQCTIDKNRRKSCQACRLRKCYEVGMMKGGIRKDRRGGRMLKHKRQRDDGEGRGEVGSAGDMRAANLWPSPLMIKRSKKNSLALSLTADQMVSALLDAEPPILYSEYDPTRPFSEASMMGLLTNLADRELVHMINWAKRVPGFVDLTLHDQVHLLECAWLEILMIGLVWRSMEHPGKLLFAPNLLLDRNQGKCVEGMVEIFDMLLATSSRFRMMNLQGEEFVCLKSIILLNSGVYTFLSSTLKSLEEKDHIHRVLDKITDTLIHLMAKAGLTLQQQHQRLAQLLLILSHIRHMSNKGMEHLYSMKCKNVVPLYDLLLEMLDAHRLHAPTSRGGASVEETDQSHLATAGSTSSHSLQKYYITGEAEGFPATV

Experiment [4] concerns the target Beta-1 adrenergic receptor (Homo sapiens, UniProt P08588). Format: functional.
The target in the next experiment is Melanocortin receptor 3 (Homo sapiens, UniProt P41968).
Experiment [5] addresses T3, Cholecystokinin receptor type A (Homo sapiens, UniProt P32238).
T3 sequence (P32238 whole entry): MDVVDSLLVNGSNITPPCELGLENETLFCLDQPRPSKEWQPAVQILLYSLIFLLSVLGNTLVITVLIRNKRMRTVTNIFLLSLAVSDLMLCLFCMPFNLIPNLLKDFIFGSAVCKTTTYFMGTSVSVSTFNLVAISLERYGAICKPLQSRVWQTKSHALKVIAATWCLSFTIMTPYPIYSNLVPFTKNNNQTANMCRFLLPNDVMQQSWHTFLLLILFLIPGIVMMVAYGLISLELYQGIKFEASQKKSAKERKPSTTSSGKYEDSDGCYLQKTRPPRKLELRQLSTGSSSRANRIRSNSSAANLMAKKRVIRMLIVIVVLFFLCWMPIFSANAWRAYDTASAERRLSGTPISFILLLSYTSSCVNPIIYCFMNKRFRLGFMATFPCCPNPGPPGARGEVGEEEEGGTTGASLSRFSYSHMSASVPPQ

For experiment [6], the target named is T4, Equilibrative nucleoside transporter 1 (Homo sapiens, UniProt Q99808).
T4 sequence (Q99808 whole entry): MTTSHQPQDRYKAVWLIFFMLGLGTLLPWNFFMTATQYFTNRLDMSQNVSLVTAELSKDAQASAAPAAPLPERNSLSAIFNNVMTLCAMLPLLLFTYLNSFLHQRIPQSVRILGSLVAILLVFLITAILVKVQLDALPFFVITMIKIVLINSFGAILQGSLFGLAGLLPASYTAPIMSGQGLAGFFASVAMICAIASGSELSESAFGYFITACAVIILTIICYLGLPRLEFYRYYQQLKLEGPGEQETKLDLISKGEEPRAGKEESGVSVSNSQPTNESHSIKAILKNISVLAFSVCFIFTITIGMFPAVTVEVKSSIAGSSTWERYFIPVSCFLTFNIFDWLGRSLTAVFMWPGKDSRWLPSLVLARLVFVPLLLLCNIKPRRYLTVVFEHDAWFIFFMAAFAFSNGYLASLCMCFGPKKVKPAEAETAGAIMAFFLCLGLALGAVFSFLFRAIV

Experiment [7] deals with T5, Amine oxidase [flavin-containing] A (Homo sapiens, UniProt P21397).
T5 sequence (P21397 whole entry): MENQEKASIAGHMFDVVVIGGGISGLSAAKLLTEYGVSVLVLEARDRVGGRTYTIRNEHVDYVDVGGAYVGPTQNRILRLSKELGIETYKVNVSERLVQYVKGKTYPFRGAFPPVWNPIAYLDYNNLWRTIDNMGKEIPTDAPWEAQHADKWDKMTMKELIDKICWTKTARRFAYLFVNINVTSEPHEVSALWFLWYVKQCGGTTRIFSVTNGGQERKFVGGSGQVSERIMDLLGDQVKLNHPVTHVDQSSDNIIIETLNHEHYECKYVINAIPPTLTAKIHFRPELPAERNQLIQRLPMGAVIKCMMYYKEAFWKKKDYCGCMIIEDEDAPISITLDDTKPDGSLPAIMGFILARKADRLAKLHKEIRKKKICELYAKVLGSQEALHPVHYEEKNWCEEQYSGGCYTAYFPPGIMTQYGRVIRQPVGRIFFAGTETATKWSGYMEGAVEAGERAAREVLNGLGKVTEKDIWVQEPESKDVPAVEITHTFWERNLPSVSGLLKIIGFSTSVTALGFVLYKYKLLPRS
Format: functional.

Experiment [8] concerns the target T1, Muscarinic acetylcholine receptor M2. The class given is functional, cell-based. The source holds these as a separate data set.
Experiment [9] concerns the target Delta-type opioid receptor (Homo sapiens, UniProt P41143).
The target of another experiment is Vasopressin V1a receptor (Homo sapiens, UniProt P37288).
Note: assay procedure not described here.

Delta-type opioid receptor, sequence (P41143 whole entry): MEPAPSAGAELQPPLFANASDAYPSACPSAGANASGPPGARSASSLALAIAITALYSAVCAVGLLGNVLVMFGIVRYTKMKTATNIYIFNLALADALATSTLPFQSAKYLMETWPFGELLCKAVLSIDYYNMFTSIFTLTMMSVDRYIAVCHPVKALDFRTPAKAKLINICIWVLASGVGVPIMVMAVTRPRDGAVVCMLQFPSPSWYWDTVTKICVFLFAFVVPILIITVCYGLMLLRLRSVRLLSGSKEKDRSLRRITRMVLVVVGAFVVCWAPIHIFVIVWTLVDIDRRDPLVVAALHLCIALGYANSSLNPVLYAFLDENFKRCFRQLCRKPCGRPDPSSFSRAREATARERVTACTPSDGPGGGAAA
Beta-1 adrenergic receptor, sequence (P08588 whole entry): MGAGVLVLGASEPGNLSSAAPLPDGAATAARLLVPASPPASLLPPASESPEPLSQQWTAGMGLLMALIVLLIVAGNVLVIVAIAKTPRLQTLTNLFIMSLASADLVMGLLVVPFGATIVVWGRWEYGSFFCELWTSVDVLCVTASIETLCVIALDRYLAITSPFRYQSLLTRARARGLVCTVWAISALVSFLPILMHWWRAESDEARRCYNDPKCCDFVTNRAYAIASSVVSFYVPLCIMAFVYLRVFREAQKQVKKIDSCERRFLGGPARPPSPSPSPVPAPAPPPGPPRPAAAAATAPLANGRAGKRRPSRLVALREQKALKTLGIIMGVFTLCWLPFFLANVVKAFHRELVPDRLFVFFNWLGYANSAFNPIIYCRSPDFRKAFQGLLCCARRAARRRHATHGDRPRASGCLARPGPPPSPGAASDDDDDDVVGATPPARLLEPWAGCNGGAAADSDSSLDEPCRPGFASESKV
Voltage-dependent L-type calcium channel subunit alpha-1C, sequence (P22002 whole entry): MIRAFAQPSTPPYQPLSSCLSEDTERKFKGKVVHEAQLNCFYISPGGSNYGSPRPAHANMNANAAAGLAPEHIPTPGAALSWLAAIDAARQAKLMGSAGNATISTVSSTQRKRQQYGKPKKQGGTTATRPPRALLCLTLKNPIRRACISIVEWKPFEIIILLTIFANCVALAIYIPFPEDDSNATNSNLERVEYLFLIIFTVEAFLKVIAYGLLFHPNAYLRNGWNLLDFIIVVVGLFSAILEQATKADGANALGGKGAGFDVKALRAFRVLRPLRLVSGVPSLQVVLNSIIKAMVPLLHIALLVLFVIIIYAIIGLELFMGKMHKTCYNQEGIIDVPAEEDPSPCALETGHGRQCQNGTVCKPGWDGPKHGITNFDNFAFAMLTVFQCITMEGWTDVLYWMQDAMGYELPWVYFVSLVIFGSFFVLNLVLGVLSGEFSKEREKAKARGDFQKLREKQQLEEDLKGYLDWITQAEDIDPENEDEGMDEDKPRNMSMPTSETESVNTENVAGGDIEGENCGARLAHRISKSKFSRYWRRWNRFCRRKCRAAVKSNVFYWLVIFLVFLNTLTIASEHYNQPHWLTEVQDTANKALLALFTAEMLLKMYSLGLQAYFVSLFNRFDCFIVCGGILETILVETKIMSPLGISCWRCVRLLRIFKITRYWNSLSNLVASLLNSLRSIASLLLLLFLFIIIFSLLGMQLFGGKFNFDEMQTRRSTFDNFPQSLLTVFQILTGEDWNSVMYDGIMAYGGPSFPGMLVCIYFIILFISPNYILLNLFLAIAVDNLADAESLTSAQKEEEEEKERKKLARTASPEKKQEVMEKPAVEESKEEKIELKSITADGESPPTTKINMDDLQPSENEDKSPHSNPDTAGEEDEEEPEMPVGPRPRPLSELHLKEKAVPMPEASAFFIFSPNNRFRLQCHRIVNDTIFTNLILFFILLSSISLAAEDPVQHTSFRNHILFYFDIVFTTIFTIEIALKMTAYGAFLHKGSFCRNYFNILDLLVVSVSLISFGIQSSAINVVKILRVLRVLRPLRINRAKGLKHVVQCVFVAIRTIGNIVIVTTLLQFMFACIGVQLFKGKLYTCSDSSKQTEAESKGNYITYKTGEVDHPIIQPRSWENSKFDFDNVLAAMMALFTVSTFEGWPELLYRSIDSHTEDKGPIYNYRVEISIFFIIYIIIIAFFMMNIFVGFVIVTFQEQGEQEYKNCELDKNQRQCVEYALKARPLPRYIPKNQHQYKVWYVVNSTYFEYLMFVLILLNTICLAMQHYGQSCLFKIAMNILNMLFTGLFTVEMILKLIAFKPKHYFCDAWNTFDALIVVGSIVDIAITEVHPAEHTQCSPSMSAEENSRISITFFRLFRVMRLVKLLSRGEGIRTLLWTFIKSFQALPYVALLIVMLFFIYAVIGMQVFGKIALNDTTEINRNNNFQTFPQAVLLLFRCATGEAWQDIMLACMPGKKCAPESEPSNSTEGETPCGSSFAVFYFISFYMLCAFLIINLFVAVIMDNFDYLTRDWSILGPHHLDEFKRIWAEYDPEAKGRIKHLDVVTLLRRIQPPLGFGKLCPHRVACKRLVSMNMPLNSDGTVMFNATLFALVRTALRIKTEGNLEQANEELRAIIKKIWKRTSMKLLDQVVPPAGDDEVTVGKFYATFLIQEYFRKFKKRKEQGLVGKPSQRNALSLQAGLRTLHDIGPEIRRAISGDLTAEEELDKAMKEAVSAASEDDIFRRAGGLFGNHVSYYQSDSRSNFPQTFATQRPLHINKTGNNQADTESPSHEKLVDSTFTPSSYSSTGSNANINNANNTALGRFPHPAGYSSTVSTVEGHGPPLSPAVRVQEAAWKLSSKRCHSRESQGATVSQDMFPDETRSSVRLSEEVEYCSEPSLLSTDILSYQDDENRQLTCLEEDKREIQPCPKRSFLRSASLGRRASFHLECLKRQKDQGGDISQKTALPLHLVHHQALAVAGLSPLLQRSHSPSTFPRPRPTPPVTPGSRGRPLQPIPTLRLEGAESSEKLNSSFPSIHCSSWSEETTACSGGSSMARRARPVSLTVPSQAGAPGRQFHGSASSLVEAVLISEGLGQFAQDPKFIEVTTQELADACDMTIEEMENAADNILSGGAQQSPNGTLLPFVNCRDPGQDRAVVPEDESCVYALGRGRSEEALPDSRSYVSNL
Vasopressin V1a receptor, sequence (P37288 whole entry): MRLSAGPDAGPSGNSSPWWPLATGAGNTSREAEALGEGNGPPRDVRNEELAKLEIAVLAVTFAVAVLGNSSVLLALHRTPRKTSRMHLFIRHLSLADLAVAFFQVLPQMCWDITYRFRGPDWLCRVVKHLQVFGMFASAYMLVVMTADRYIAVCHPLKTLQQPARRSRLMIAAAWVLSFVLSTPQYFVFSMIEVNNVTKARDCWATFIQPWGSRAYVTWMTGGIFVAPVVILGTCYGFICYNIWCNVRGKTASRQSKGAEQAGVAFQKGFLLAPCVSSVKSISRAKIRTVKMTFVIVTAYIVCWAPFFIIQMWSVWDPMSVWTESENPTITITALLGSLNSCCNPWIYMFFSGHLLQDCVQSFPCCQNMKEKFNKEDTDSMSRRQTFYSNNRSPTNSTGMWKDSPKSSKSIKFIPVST
Melanocortin receptor 3, sequence (P41968 whole entry): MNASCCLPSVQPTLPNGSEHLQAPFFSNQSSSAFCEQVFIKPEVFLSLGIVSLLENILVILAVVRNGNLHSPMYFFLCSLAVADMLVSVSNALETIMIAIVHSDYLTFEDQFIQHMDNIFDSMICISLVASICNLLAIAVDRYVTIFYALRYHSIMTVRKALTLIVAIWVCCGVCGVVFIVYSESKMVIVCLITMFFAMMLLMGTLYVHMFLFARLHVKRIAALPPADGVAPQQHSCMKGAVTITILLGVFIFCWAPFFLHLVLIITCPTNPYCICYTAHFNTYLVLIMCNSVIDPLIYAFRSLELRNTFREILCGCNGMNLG
Sodium-dependent noradrenaline transporter, sequence (P23975 whole entry): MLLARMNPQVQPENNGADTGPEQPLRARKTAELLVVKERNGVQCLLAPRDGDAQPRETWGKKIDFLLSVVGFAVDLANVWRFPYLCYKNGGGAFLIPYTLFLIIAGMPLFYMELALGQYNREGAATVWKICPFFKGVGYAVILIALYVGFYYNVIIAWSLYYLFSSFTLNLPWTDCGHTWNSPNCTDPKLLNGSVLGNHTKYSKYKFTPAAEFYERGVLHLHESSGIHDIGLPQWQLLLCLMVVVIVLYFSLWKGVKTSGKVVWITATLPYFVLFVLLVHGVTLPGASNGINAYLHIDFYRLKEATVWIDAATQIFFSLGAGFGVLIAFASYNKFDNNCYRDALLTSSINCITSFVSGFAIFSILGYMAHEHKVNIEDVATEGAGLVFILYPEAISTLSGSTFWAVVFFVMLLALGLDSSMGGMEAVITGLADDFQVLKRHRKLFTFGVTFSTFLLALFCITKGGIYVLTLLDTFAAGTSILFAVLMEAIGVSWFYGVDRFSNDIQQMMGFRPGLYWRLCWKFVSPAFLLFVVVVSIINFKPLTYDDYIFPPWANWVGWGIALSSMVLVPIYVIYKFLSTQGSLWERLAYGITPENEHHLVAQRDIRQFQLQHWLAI

For the compound `O=C(O)CCNC(=O)c1ccccc1` [BETAMIPRON], the AC50 (in experiment [1]; in [2]; in [3]; on Estrogen receptor; in experiment [4]; at Melanocortin receptor 3) was over 30 µM each time. Moreover, the AC50 in experiment [5], in [6], in [7], in experiment [8] and in experiment [9] was over 30 µM throughout.
For `NC1CCN(c2nc3c(cc2F)c(=O)c(C(=O)O)cn3-c2ccc(F)cc2F)C1` (centres undefined) [TOSUFLOXACIN], the concentration at half-maximal activity (AC50) (in experiment [1]; in [2]; in [3]; on Estrogen receptor; in [4]; on Melanocortin receptor 3) was over 30 µM throughout. In addition, the AC50 in [5], in experiment [6], in experiment [7], in experiment [8] and in experiment [9] was over 30 µM throughout.
For the compound `O=C1CN=C(c2ccccc2)c2cc([N+](=O)[O-])ccc2N1` [NITRAZEPAM], the half-maximal activity concentration (AC50) (in experiment [1]; in experiment [2]; in experiment [3]; at Estrogen receptor; in experiment [4]; on Melanocortin receptor 3) was over 10 µM in each case. Also, the half-maximal activity concentration (AC50) in experiment [5] was over 10 µM; in experiment [6], over 10 µM; in [7], over 10 µM; in experiment [8], over 10 µM; in experiment [9], over 30 µM.
Turning to `O=C(O)c1ccccc1Nc1cc(Cl)ccc1C(=O)O` [LOBENZARIT], the AC50 (in experiment [1]; in [2]; in [3]; at Estrogen receptor; in [4]; at Melanocortin receptor 3) was over 30 µM throughout. Moreover, the AC50 (in experiment [5]; on Vasopressin V1a receptor; in experiment [6]; in experiment [8]; in [9]) was over 30 µM in each case.
With `Nc1cc(-c2ccncc2)c[nH]c1=O` [INAMRINONE], the concentration at half-maximal activity (AC50) in [1] is over 10 µM; in experiment [2] it was over 10 µM; in experiment [3], over 30 µM; on Estrogen receptor, over 30 µM; in experiment [4], over 10 µM; at Melanocortin receptor 3, over 30 µM. Also, the concentration at half-maximal activity (AC50) in [5] was over 30 µM; in [6] it was over 30 µM; in experiment [7] it was over 10 µM; in experiment [8], over 10 µM; in [9], over 30 µM.
As for `CCN(CC)CCN1C(=O)CN=C(c2ccccc2F)c2cc(Cl)ccc21` [FLURAZEPAM], the AC50 is over 10 µM in experiment [1]; over 10 µM in [2]; over 30 µM in experiment [3]; over 30 µM at Estrogen receptor; over 10 µM in experiment [4]; over 30 µM on Melanocortin receptor 3. Besides, the half-maximal activity concentration (AC50) in experiment [5] was over 30 µM; in experiment [6], over 30 µM; in experiment [7] it was over 10 µM; in experiment [8], over 10 µM; in experiment [9], over 30 µM.
For `C/C(=C\C(=O)OCCCCCCCCC(=O)O)C[C@@H]1OC[C@H](C[C@@H]2O[C@H]2[C@@H](C)[C@H](C)O)[C@@H](O)[C@H]1O` [MUPIROCIN], the AC50 was over 10 µM in experiment [1]; over 10 µM in [2]; over 30 µM in experiment [3]; over 10 µM at Estrogen receptor; over 10 µM in experiment [4]; over 10 µM at Melanocortin receptor 3. In addition, the AC50 in [5] is over 10 µM; in [6] it was over 30 µM; in experiment [7], over 10 µM; in experiment [8] it was over 10 µM; in experiment [9], over 30 µM.
With `Cc1ncc2n1-c1ccc(Cl)cc1C(c1ccccc1F)=NC2` [MIDAZOLAM], the half-maximal activity concentration (AC50) is over 10 µM in [1]; over 10 µM in experiment [2]; over 30 µM in experiment [3]; over 30 µM on Estrogen receptor; over 10 µM in experiment [4]; over 30 µM on Melanocortin receptor 3. For the same compound, the AC50 in [5] is over 30 µM; in experiment [6], over 30 µM; in experiment [7], over 10 µM; in experiment [8], over 10 µM; in experiment [9], over 30 µM.
`C#CCOc1ccc(N)cc1C(=O)NCCCC` [PARSALMIDE]: the AC50 (in [1]; in [2]; in experiment [3]; on Estrogen receptor; in experiment [4]; on Melanocortin receptor 3) was over 30 µM throughout. The AC50 (in experiment [5]; on Vasopressin V1a receptor; in experiment [7]; in [8]; in [9]) was over 30 µM throughout.
For `Cn1c(=O)cc(N2CCC[C@@H](N)C2)n(Cc2ccccc2C#N)c1=O` [ALOGLIPTIN], the half-maximal activity concentration (AC50) in [2] is over 10 µM; in [3] it was over 10 µM; at Estrogen receptor, over 30 µM; in [4], over 10 µM; on Melanocortin receptor 3 it was over 30 µM; in experiment [5], over 30 µM. Further, the half-maximal activity concentration (AC50) at Vasopressin V1a receptor is over 10 µM; in experiment [6], over 30 µM; in experiment [9], over 10 µM.
As to `CC(=O)O[C@H](CC(=O)[O-])C[N+](C)(C)C` [ACETYLCARNITINE], the AC50 (in [1]; in experiment [2]; in [3]; on Estrogen receptor; in [4]; on Melanocortin receptor 3) was over 30 µM each time. Further, the AC50 (in experiment [5]; at Vasopressin V1a receptor; in experiment [6]; in [8]; in experiment [9]) was over 30 µM throughout.
